Tests used:
[1] = molecular target: M2 Protein from Influenza A virus (Influenza A virus, UniProt P06821); type: binding; details: spectra with AMT vs without AMT, FIG. 6
gramicidin A channel [2] = assay: 17O solid-state NMR of 17O-[D-Leu10]-gA in AAO-aligned DMPC bilayers, reversible ion binding; details: 2.4 M KCl, approx. double occupancy of K+ in the dimeric channel, channel perpendicular to B0, 19.6 T, 40° C., reversible by EDTA wash
Protocol: The ^17O-[D-Leu^10]-gA was prepared as described previously (29), resulting in material with 57% enrichment of ^17O isotope (H^172O from Cambridge Isotope Labs, Andover, Mass.). The dry peptide was codissolved with DMPC in a 1:16 molar ratio in benzene/ethanol (20:1 v/v) solvent (28) and pipetted onto the nanoporous support. The organic solution containing gA and DMPC was rapidly adsorbed. This commercial substrate, “20 nm” Anodisc® 13 membranes (Whatman International), is shaped as disks 13 mm in diameter that are approximately […] thick. For ^31P NMR experiments AAO disks were cut into strips less than 5 mm in width to fit into a rectangular approximately 600 μL sample coil. We have also designed a special coil for ^17O NMR that required no disk cutting. Typically, stacks of up to 40 AAO strips or disks were employed for NMR measurements. The disks have a well-aligned through-film porous structure with nanochannels directed perpendicular to the disk outer surface.
The manufacturer specifies that these nanoporous substrates have a 20-nm filtration diameter cutoff. […]
The Leu^10 carbonyl in the gramicidin A pore is one of three carbonyl sites involved in K^+ binding. We have monitored K^+ binding using the ^17O resonance of selectively labeled Leu^10 carbonyls of gramicidin A dimers incorporated into DMPC bilayers and aligned using the AAO method. […]

gramicidin A channel [3] = details: DMPC-gA aligned by glass slides, channel parallel to B0; cited from earlier work

M2 Protein from Influenza A virus, sequence (P06821 whole entry): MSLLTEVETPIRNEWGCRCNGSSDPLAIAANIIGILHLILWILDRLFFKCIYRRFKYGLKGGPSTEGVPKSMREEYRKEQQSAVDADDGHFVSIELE

| Structure (SMILES) | NMR signal changes upon binding drug (spectral shift of M2 protein) [1] | downfield shift Δδ of the 17O resonance of Leu10 carbonyl upon ion binding (δ⊥) (gramicidin A channel [2]) | shift of the 17O resonance at δ∥ upon K+ binding (gramicidin A channel [3]) [ppm] |
| --- | --- | --- | --- |
| NC12CC3CC(CC(C3)C1)C2 [Amantadine] | dramatic changes |  |  |
| [Cl-].[K+] [KCl] |  | ≈ 18 ppm | 40 |

— US7674595B1, “Solid state NMR method for screening cell membrane protein binding drug candidates” (priority 2006, dated 2010)
